Values joined by “and” are separate entries in the source; they are usually repeats but may differ in a detail not shown here. Equal entries are not always repeated.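 How tested: cells in 96-well plates exposed to compound for 48 hours at five concentrations. GI50 = concentration required for 50% inhibition of growth. TGI: concentration producing complete growth inhibition.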
What was measured:
Assay in all cases: inhibition of tumour cell growth, NCI panel, 48 h
SNB-75 CNS = system: SNB-75 CNS
UACC-257 melanoma = system: UACC-257 melanoma
CAKI-1 renal = system: CAKI-1 renal
786-0 renal = system: 786-0 renal
CCRF-CEM leukemia = system: CCRF-CEM leukemia
HS 578T breast = system: HS 578T breast
BT-549 breast = system: BT-549 breast
TK-10 renal = system: TK-10 renal
MALME-3M melanoma = system: MALME-3M melanoma
OVCAR-8 ovarian = system: OVCAR-8 ovarian

| Compound | TGI (SNB-75 CNS) | TGI (UACC-257 melanoma) | TGI (CAKI-1 renal) [µM] | TGI (786-0 renal) [µM] | TGI (CCRF-CEM leukemia) | TGI (HS 578T breast) [µM] | TGI (BT-549 breast) [µM] | TGI (TK-10 renal) [µM] | TGI (MALME-3M melanoma) [µM] | TGI (OVCAR-8 ovarian) [µM] | GI50 (UACC-257 melanoma) | GI50 (HS 578T breast) [µM] | GI50 (BT-549 breast) [µM] | GI50 (MALME-3M melanoma) | GI50 (OVCAR-8 ovarian) | GI50 (SNB-75 CNS) |
| --- | --- | --- | --- | --- | --- | --- | --- | --- | --- | --- | --- | --- | --- | --- | --- | --- |
| CCOC(=O)c1[nH]c2cccc3c2c1CC[C@H](NC(=O)C(F)(F)F)C3=O | 56.7 µM | > 100 µM | 28 | > 100 | > 100 µM | 61.8 | > 100 | > 100 | > 100 | > 100 | – | – | – | – | – | – |
| O=[N+]([O-])c1ccc(O)c(/C=N/c2nc(-c3ccccc3)cs2)c1 | 75.5 µM | > 100 µM | > 100 | > 100 | > 100 µM | 74.6 | 46.4 | > 75.4 | 74.6 | 68.4 | – | – | – | – | – | – |
| CC(=O)OC(C)c1cc2c(s1)C(=O)c1c(C(C)OC(C)=O)csc1C2=O (stereo not drawn) | 4.43 µM | 1.89 µM | – | 4.93 | 4.44 µM | 7.59 | 3.83 | 5.69 | 0.412 | 2.05 | 0.631 µM | 2.08 | 2.14 | 0.186 µM | 0.452 µM | – |
| COC(=O)C1=CON2C3CC4CC(C3)CC(C4)C12C (stereo not drawn) | > 100 µM | > 100 µM | > 100 | > 100 | > 100 µM | > 100 | > 100 | > 100 | > 100 | > 100 | – | – | – | – | – | – |
| CN(C)CCNC(=O)c1ccc(Cl)c2cc3ccccc3nc12 | 5.84 µM | 2.64 µM | 11.6 | 5.61 | 4.64 µM | 3.07 | 7.82 | 5.95 | 2.26 | 6.44 | – | – | – | – | – | – |
| N#CC[N+]1(Cc2ccccn2)CCCC1 | > 100 µM | > 100 µM | > 100 | > 100 | – | > 100 | > 100 | > 100 | > 100 | > 100 | – | – | – | – | – | – |
| CN(C)CC1CCC/C(=C\c2ccc(OC(=O)/C=C/c3ccc(Cl)c(Cl)c3)cc2)C1=O (stereo not drawn) | 68.5 µM | 40.4 µM | 5.81 | 4.19 | 1.77 µM | > 85.3 | 8.01 | 5.96 | 25.4 | 28.5 | – | – | – | – | – | – |
| O=C(O)CNC(=O)c1ccc2cc(C(=O)N3CC(CCl)c4ccc([N+](=O)[O-])cc43)[nH]c2c1 (stereo not drawn) | > 100 µM | > 100 µM | > 100 | > 100 | > 100 µM | > 100 | > 100 | > 100 | – | > 100 | – | – | – | – | – | – |
| COC([C@@H](OC(=O)c1ccccc1)[C@H](OC(=O)c1ccccc1)C(O)COC(=O)c1ccccc1)n1cc(C)c(=O)[nH]c1=O (stereo partly drawn) | 73.8 µM | > 100 µM | – | 77 | – | > 100 | 77 | > 100 | 91.7 | > 100 | – | – | – | – | – | – |
| COc1cc(CCN(C)C)cc(OC)c1OC | > 100 µM | > 100 µM | > 100 | – | > 100 µM | > 100 | > 100 | > 100 | – | > 100 | – | – | – | – | – | – |
| NC(=Nc1ccccc1)c1ccccc1N | > 100 µM | > 100 µM | > 100 | > 100 | > 100 µM | > 100 | > 100 | > 100 | – | > 100 | – | – | – | – | – | – |
| COc1ccc2c(c1)CCN1CCCc3ccccc3C21 (stereo not drawn) | 78.5 µM | > 100 µM | > 100 | > 100 | > 100 µM | > 100 | 86.6 | > 100 | – | > 100 | – | – | – | – | – | – |
| CN(Cc1cnc2nc(N)nc(N)c2n1)c1ccc(C(=O)NC(CCC(=O)NC(CC(P(=O)(O)O)P(=O)(O)O)C(=O)O)C(=O)O)cc1 (stereo not drawn) | > 100 µM | > 100 µM | – | > 100 | – | > 100 | > 100 | > 100 | > 100 | > 100 | – | – | – | – | – | – |
| CCCCCCCCCCCCCCCCCC(=O)Nc1ccn(C2CCC(COP(=O)(O)O)O2)c(=O)n1 (stereo not drawn) | > 100 µM | > 100 µM | > 100 | > 100 | > 100 µM | > 100 | > 100 | > 100 | – | > 100 | – | – | – | – | – | – |
| O=[N+]([O-])c1cccc(Cl)c1Oc1ccc(S(=O)(=O)/N=C(\NO)Nc2ccc(Cl)cc2)cc1 | – | 26 µM | 25.8 | 25.7 | 29.7 µM | 27.6 | 29.9 | 30.4 | 31.2 | 39.6 | – | – | – | – | – | – |
| CC(=O)NC1(C(=O)N[C@@H](Cc2ccccc2)C(=O)NC2CCCCC2)Cc2ccc3ccccc3c2-c2c(ccc3ccccc23)C1 | > 100 µM and 36.6 µM | 10.8 µM and 75.5 µM | > 100 | > 100 | > 100 µM and 40.3 µM | > 100 | > 100 | – | > 100 | > 100 | 2 µM and 5.32 µM | – | – | 5 µM and 19.4 µM | 8.67 µM and 33.2 µM | 7.84 µM and 1.43 µM |
| Cc1c2ccccc2c(C)n2c1nc1ccccc12 | 27.7 µM | 76.4 µM | – | 25.9 | 60.5 µM | 54.5 | 35.3 | 44.4 | 23.5 | > 100 | – | – | – | – | – | – |
| O=C(C(Cl)=C(N1CCCCC1)N1CCCCC1)C(Cl)Cl | – | > 100 µM | > 100 | > 100 | > 100 µM | > 100 | > 100 | > 100 | > 100 | > 100 | – | – | – | – | – | – |
| COCC12CCC(OC)C34C5CC6(O)C(OC)CC(OC(C)=O)(C5C6OC(=O)c5ccccc5)C(C(OC)C13)C4N(C)C2 (stereo not drawn) | – | > 100 µM | > 100 | > 100 | > 100 µM | > 100 | > 100 | > 100 | > 100 | > 100 | – | – | – | – | – | – |
| O=C1C2=C(SCCS2)C(=O)c2c(Sc3ccc(Cl)cc3)c(Sc3ccc(Cl)cc3)c(Sc3ccc(Cl)cc3)c(Sc3ccc(Cl)cc3)c21 | > 100 µM | > 100 µM | > 100 | > 100 | 23.8 µM | > 100 | > 100 | – | 69.8 | > 100 | – | – | – | – | – | – |
| CNC(=S)NNc1ncnc2c1ncn2-c1ccc(C)cc1 | – | > 100 µM | > 100 | > 100 | > 100 µM | > 100 | > 100 | > 100 | > 100 | > 100 | – | – | – | – | – | – |
| CC(C)(C)OC(=O)N1[C@@H]2Cc3ccc(N)cc3[C@@]1(C)c1ccccc12 | – | 78.2 µM | > 100 | 36.2 | 64.9 µM | > 100 | 43.4 | > 100 | 91 | – | – | – | – | – | – | – |

Source: PubChem BioAssay (NCI)
